Reference: patent US20150105252A1, “SUBSTITUTED PYRAZOLES AS HERBICIDES” (E I DU PONT DE NEMOURS AND COMPANY, priority 2013, published 2015)

Assays:
barnyardgrass [1] = assay: Test A preemergence; type: in vivo, Echinochloa crus-galli; settings: preemergence
Procedure, shortened: (§1)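 After sowing in a sand–loam mix, pots received compound preemergence by directed soil spray, or postemergence once plants reached the one- to two-leaf stage (2–10 cm). Formulation contained surfactant in a non-phytotoxic solvent. Injury was scored visually after ~10 greenhouse days, 0–100 scale.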

crabgrass, large [2] = assay: Test A preemergence; type: in vivo, Digitaria sanguinalis; settings: preemergence
Procedure, shortened: as §1

foxtail, giant [3] = assay: Test A preemergence; type: in vivo, Setaria faberii; settings: preemergence
Procedure, shortened: as §1

morningglory [4] = assay: Test A preemergence; type: in vivo, Ipomoea spp.; settings: preemergence
Procedure, shortened: as §1

pigweed [5] = assay: Test A preemergence; type: in vivo, Amaranthus retroflexus; settings: preemergence
Procedure, shortened: as §1

velvetleaf [6] = assay: Test A preemergence; type: in vivo, Abutilon theophrasti; settings: preemergence
Procedure, shortened: as §1

wheat [7] = assay: Test A preemergence; type: in vivo, Triticum aestivum; settings: preemergence
Procedure, shortened: as §1

corn [8] = assay: Test A preemergence; type: in vivo, Zea mays; settings: preemergence
Procedure, shortened: as §1

barnyardgrass [9] = assay: Test A postemergence; type: in vivo, Echinochloa crus-galli
Procedure, shortened: as §1

crabgrass, large [10] = assay: Test A postemergence; type: in vivo, Digitaria sanguinalis
Procedure, shortened: as §1

foxtail, giant [11] = assay: Test A postemergence; type: in vivo, Setaria faberii
Procedure, shortened: as §1

morningglory [12] = assay: Test A postemergence; type: in vivo, Ipomoea spp.
Procedure, shortened: as §1

pigweed [13] = assay: Test A postemergence; type: in vivo, Amaranthus retroflexus
Procedure, shortened: as §1

velvetleaf [14] = assay: Test A postemergence; type: in vivo, Abutilon theophrasti
Procedure, shortened: as §1

wheat [15] = assay: Test A postemergence; type: in vivo, Triticum aestivum
Procedure, shortened: as §1

corn [16] = assay: Test A postemergence; type: in vivo, Zea mays
Procedure, shortened: as §1

rice = assay: Test B flood; type: in vivo, Oryza sativa; settings: 250 g ai/ha, visual rating on 0 to 100 scale (0 no effect, 100 complete control), 13 to 15 days
Procedure, shortened: (§2)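 Each compound is applied to the floodwater of pots holding 2-leaf seedlings, water standing 3 cm over the soil throughout. Plants stay in a greenhouse 13 to 15 days before visual scoring against controls from 0 (no effect) to 100 (complete control).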

sedge, umbrella = assay: Test B flood; type: in vivo, Cyperus difformis; settings: 250 g ai/ha, visual rating on 0 to 100 scale (0 no effect, 100 complete control), 13 to 15 days
Procedure, shortened: as §2

ducksalad = assay: Test B flood; type: in vivo, Heteranthera limosa; settings: 250 g ai/ha, visual rating on 0 to 100 scale (0 no effect, 100 complete control), 13 to 15 days
Procedure, shortened: as §2

barnyardgrass [17] = assay: Test B flood; type: in vivo, Echinochloa crus-galli; settings: 250 g ai/ha, visual rating on 0 to 100 scale (0 no effect, 100 complete control), 13 to 15 days
Procedure, shortened: as §2

[18] = 125 g ai/ha, visual injury, 0 to 100 scale, approx. 10 days
[19] = 500 g ai/ha, visual injury after approx. 10 days, 0 to 100 scale (0 no effect, 100 complete control)
[20] = Postemergence, 500 g ai/ha, 0 to 100 scale (0 no effect, 100 complete control)
[21] = postemergence, 125 g ai/ha, about 10 days, visual rating on 0 to 100 scale (0 no effect, 100 complete control)
[22] = Postemergence, 500 g ai/ha, visual rating after approx. 10 days, 0 to 100 scale (0 no effect, 100 complete control)

SMILES | Barnyardgrass plant response rating (barnyardgrass [1]; [18]) | Barnyardgrass plant response rating (barnyardgrass [1]; [19]) | Crabgrass, Large plant response rating (crabgrass, large [2]; [18]) | Crabgrass, Large plant response rating (crabgrass, large [2]; [19]) | Foxtail, Giant plant response rating (foxtail, giant [3]; [18]) | Foxtail, Giant plant response rating (foxtail, giant [3]; [19]) | Morningglory plant response rating (morningglory [4]; [18]) | Morningglory plant response rating (morningglory [4]; [19]) | Pigweed plant response rating (pigweed [5]; [18]) | Pigweed plant response rating (pigweed [5]; [19]) | Velvetleaf plant response rating (velvetleaf [6]; [18]) | Velvetleaf plant response rating (velvetleaf [6]; [19]) | Wheat plant response rating (wheat [7]; [18]) | Wheat plant response rating (wheat [7]; [19]) | Corn plant response rating (corn [8]; [18]) | Corn plant response rating (corn [8]; [19]) | Crabgrass, Large plant response rating (crabgrass, large [10]; [21]) | Foxtail, Giant plant response rating (foxtail, giant [11]; [21]) | Morningglory plant response rating (morningglory [12]; [21]) | Pigweed plant response rating (pigweed [13]; [21]) | further results
CCc1cc(C(=O)NC(C)C)nn1Cc1cc(C(F)(F)F)nn1CC [Compound 120] | 20 | 100 | 100 | 100 | 60 | 90 | 70 | 100 | 70 | 90 | 10 | 70 | 0 | 40 | 20 | 50 | 30 | 30 | 80 | 50 | Barnyardgrass plant response rating (barnyardgrass [9]; [20]): 90; Barnyardgrass plant response rating (barnyardgrass [9]; [21]): 30; Crabgrass, Large plant response rating (crabgrass, large [10]; [20]): 80; Foxtail, Giant plant response rating (foxtail, giant [11]; [20]): 70; Morningglory plant response rating (morningglory [12]; [20]): 100; Pigweed plant response rating (pigweed [13]; [20]): 80; Velvetleaf plant response rating (velvetleaf [14]; [20]): 80; Velvetleaf plant response rating (velvetleaf [14]; [21]): 30; Wheat plant response rating (wheat [15]; [20]): 30; Wheat plant response rating (wheat [15]; [21]): 0; Corn plant response rating (corn [16]; [20]): 60; Corn plant response rating (corn [16]; [21]): 30; Plant response rating, Rice (rice): 0; Plant response rating, Sedge, Umbrella (sedge, umbrella): 80; Plant response rating, Ducksalad (ducksalad): 40; Plant response rating, Barnyardgrass (barnyardgrass [17]): 0
Cc1cc(C(=O)Nc2ccc(F)cc2)nn1Oc1ccnc(C(F)(F)F)c1 [Compound 90] | 0 | 0 | 0 | 20 | 0 | 10 | 0 | 10 | 0 | 10 | 0 | 0 | 0 | 10 | 0 | 40 | 0 | 0 | 0 | 0 | Barnyardgrass plant response rating (barnyardgrass [9]; Postemergence, 125 g ai/ha, 0 to 100 scale, 0 no effect, 100 complete control): 0; Barnyardgrass plant response rating (barnyardgrass [9]; [22]): 0; Crabgrass, Large plant response rating (crabgrass, large [10]; [22]): 0; Foxtail, Giant plant response rating (foxtail, giant [11]; [22]): 0; Morningglory plant response rating (morningglory [12]; [22]): 10; Pigweed plant response rating (pigweed [13]; [22]): 0; Velvetleaf plant response rating (velvetleaf [14]; [22]): 0; Velvetleaf plant response rating (velvetleaf [14]; [21]): 0; Wheat plant response rating (wheat [15]; [22]): 0; Wheat plant response rating (wheat [15]; [21]): 0; Corn plant response rating (corn [16]; [22]): 30; Corn plant response rating (corn [16]; [21]): 0; Plant response rating, Rice (rice): 0; Plant response rating, Sedge, Umbrella (sedge, umbrella): 0; Plant response rating, Ducksalad (ducksalad): 0; Plant response rating, Barnyardgrass (barnyardgrass [17]): 0
